Where “and” joins values, the source holds several entries; their conditions need not be identical. Equal entries are not always repeated.
Tests used:
[1] = system: neuropathic pain in mice; test: Taxol mouse model of neuropathic pain, repeated daily administration; type: in vivo
Excerpt: (§1) Table 7 summarizes the activity of Formula 1 in mice models of neuropathic pain following repeated daily administration using different routes of administration.

[2] = system: neuropathic pain in mice; test: CCI mouse model of neuropathic pain, repeated daily administration; type: in vivo; settings: for Dose of maximum activity: doses tested 150 mg/kg
Excerpt: as §1

[3] = PO, 30 mg/kg, repeated daily administration
[4] = SC, doses tested 1, 3, 10 mg/kg, repeated daily administration
[5] = SC, 150 mg/kg, repeated daily administration

| SMILES | Duration of activity at maximum effect [1, 3] | Level of activity (% of maximum effect- baseline) [1, 3] | Peak of activity (T) [1, 3] | Dose of maximum activity ([1]; PO, doses tested 30 mg/kg) | Dose of maximum activity ([1]; SC, doses tested 1, 3, 10 mg/kg) | Duration of activity at maximum effect [1, 4] | Level of activity (% of maximum effect- baseline) [1, 4] | Dose of maximum activity ([1]; PO, doses tested 150 mg/kg) | Dose of maximum activity ([1]; SC, doses tested 150 mg/kg) | Dose of maximum activity ([2]; IP) | Duration of activity at maximum effect [2, 5] | Level of activity (% of maximum effect- baseline) [2, 5] | Peak of activity (T) [2, 5] | Dose of maximum activity ([2]; SC) |
| --- | --- | --- | --- | --- | --- | --- | --- | --- | --- | --- | --- | --- | --- | --- |
| COc1ccc2cc(CN3[C@@H]4C[C@@H]5C[C@H]3[C@H](OC(=O)C(C)(C)C)C4N(C(=O)CC(F)(F)F)C5)ccc2c1 (stereo partly drawn) [Formula 1, (2S,3S,6R,7aR)-1-((6-methoxynaphthalen-2-yl)methyl)-4-(3,3,3-trifluoropropanoyl)octahydro-1H-2,6-methanopyrrolo[3,2-b]pyridin-3-yl pivalate] | 24 H | 100% | 2-24 H | <30 mg/kg | 1 mg/kg | 24 h | 100% |  |  |  |  |  |  |  |
| NCC1(CC(=O)O)CCCCC1 [Gabapentin] |  |  |  |  |  |  |  | 150 mg/kg | 150 mg/kg | 150 mg/kg | 4-6 H | >100% and 64% | 2-3 H | 150 mg/kg |

Reference: US10351565B2, “Therapeutic compounds for pain and synthesis thereof” (priority 2015, dated 2019)
